Data published in patent US10683333B2, “Islet amyloid polypeptides with improved solubility” (The Research Foundation for The State University of New York, priority 2014, dated 2020).
“Also recorded” adds a separate entry of the source. Where a SMILES comes first, the peptide text is derived from it. Bridges are numbered along the chain shown (N, C = ends).

Key:
[1] = assay type: physicochemical; conditions: pH 7.4
Procedure: Dry peptides were dissolved into PBS buffer at pH 7.4 at different initial concentrations, and were incubated for 7 days at 25° C. without stirring. Each sample was then centrifuged using a Beckman Coulter Microfuge 22R Centrifuge at 24° C. for 20 min. The relative centrifugal force used was 1.75×10^4 g. Solubility of each sample was approximated by measuring the absorbance of the corresponding supernatant at 280 nm measured using a Beckman Coulter DU 730 UV/Vis Spectrophotometer. All of the peptides contain a single Tyr, 3 Phe and a disulfide bond, thus their extinction coefficients at 280 nm are very similar. The solubility of PM and the mutant hIAPP polypeptides of the present disclosure was analyzed and compared at pH 7.4. Each peptide was incubated in buffer for 7 days at three different concentrations (100 μM, 500 μM and 1 mM) and the solution was then centrifuged. The apparent solubility was represented by the absorbance of the supernatant of each sample measured at 280 nm. […] Additionally, the supernatant of QM sample has a higher absorbance, 0.162, than that of TM-a and PM, 0.103 and 0.112 respectively (FIG. 4A). […] At 1 mM, the absorbance of the soluble fraction of TM-a, TM-b and QM were 1.23, 1.49, and 1.33 respectively, while that value of PM was only 0.354. In comparison, the absorbance of the supernatant of the 1 mM hIAPP was 0.109 (FIGS. 4A-C).

[2] = Thioflavin-T fluorescence assay of amyloid formation kinetics; assay type: physicochemical; conditions: 20 mM Tris-HCl pH 7.4, 25° C., without stirring
Procedure: Each peptide was dissolved into 100% hexafluoroisoproponal (HFIP) to make a 1.6 mM stock solution. Stock solutions were filtered using […] Acrodisc syringe filter with a GHP membrane and the required amount of peptide was lyophilized overnight to remove HFIP. Dry peptide was dissolved into the appropriate buffer for the fluorescence assays. Thioflavin-T binding assays, conducted without HFIP or stirring at 25° C., were utilized to monitor amyloid formation kinetics. Fluorescence measurements were performed using a Beckman Coulter DTX 880 plate reader with a multimode detector using an excitation wavelength of 430 nm and an emission wavelength of 485 nm. Samples were prepared by dissolving dry peptide into Tris-HCl buffer and thioflavin-T solution immediately before the measurement. The final concentrations were 16 μM hIAPP or 160 μM of each analog and 32 μM thioflavin-T in 20 mM Tris-HCl (pH 7.4). After creating mutant hIAPP polypeptides of the present disclosure, applicants tested the propensity of the different analogs to form amyloid at pH 7.4 using thioflavin-T fluorescence assays. […] Amyloid formation follows a sigmoidal time course consisting of a lag phase in which few, if any, fibrils are formed, followed by a growth phase and a saturation phase in which amyloid fibrils are in equilibrium with soluble peptide.

[3] = Transmission electron microscopy (TEM) of samples at end of kinetic experiments; assay type: physicochemical; conditions: aliquots at end of kinetic experiment; 16 μM hIAPP, 160 μM analogs, pH 7.4
Procedure: TEM images were collected at the Life Science Microscopy Center at the State University of New York at Stony Brook. 15 μL aliquots of the samples used for fluorescence assays were removed at the end of each kinetic experiment, blotted on a carbon-coated 200-mesh copper grid for 1 min and then negatively stained with saturated uranyl acetate for 1 min. Samples were further analyzed using TEM and CD.

[4] = Far-UV circular dichroism (CD) of aliquots at end of kinetic experiments; assay type: physicochemical; conditions: aliquots at end of kinetic experiment, 25° C.
Procedure: Far-UV CD experiments were performed on an Applied Photophysics Chirascan CD spectrophotometer at 25° C. Aliquots from the kinetic experiments were removed at the end of each experiment and the spectra were recorded as the average of three repeats over a range of 190-260 nm, at 1 nm intervals. A 0.1 cm quartz cuvette was used and a background spectrum was subtracted from the data. Samples were further analyzed using TEM and CD.

Structure (SMILES)	solubility at neutral pH compared with PM / wild-type hIAPP [1]	amyloid formation monitored by thioflavin-T fluorescence ([2]; 160 μM peptide, about 140 hrs)	fibril morphology in TEM images [3]	time for amyloid formation to reach the saturation phase ([2]; 16 μM hIAPP)	secondary structure by CD spectrum [4]	absorbance of the supernatant at 280 nm (apparent solubility) [1]
CC(C)C[C@H](NC(=O)[C@H](CCCNC(=N)N)NC(=O)[C@H](CCC(N)=O)NC(=O)[C@@H](NC(=O)[C@H](C)NC(=O)[C@@H]1CSSC[C@H](NC(=O)[C@@H](N)CCCCN)C(=O)N[C@@H](CC(N)=O)C(=O)N[C@@H]([C@@H](C)O)C(=O)N[C@@H](C)C(=O)N[C@@H]([C@@H](C)O)C(=O)N1)[C@@H](C)O)C(=O)N[C@@H](C)C(=O)N[C@@H](CC(N)=O)C(=O)N[C@@H](Cc1ccccc1)C(=O)N[C@@H](CC(C)C)C(=O)N[C@H](C(=O)N[C@@H](CCCNC(=N)N)C(=O)N[C@@H](CO)C(=O)N[C@@H](CO)C(=O)N[C@@H](CC(N)=O)C(=O)N[C@@H](CC(N)=O)C(=O)N[C@@H](Cc1ccccc1)C(=O)NCC(=O)N[C@@H](C)C(=O)N1CCC[C@H]1C(=O)N[C@@H](CC(C)C)C(=O)N[C@@H](CO)C(=O)N[C@@H](CO)C(=O)N[C@H](C(=O)N[C@@H](CC(N)=O)C(=O)N[C@H](C(=O)NCC(=O)N[C@@H](CO)C(=O)N[C@@H](CC(N)=O)C(=O)N[C@H](C(=O)N[C@@H](Cc1ccc(O)cc1)C(N)=O)[C@@H](C)O)C(C)C)[C@@H](C)O)C(C)C [DM] (H-KCNTATCATQRLANFLVRSSNNFGAPLSSTNVGSNTY-NH2; disulfide 2-7; N-terminus assumed)	much better solubility at neutral pH than PM	–	–	–	–	–
CC[C@H](C)[C@H](NC(=O)[C@@H]1CCCN1C(=O)CNC(=O)[C@H](Cc1ccccc1)NC(=O)[C@H](CC(N)=O)NC(=O)[C@H](CC(N)=O)NC(=O)[C@H](CO)NC(=O)[C@H](CO)NC(=O)[C@H](Cc1c[nH]cn1)NC(=O)[C@@H](NC(=O)[C@H](CC(C)C)NC(=O)[C@H](Cc1ccccc1)NC(=O)[C@H](CC(N)=O)NC(=O)[C@H](C)NC(=O)[C@H](CC(C)C)NC(=O)[C@H](CCCNC(=N)N)NC(=O)[C@H](CCC(N)=O)NC(=O)[C@@H](NC(=O)[C@H](C)NC(=O)[C@@H]1CSSC[C@H](NC(=O)[C@@H](N)CCCCN)C(=O)N[C@@H](CC(N)=O)C(=O)N[C@@H]([C@@H](C)O)C(=O)N[C@@H](C)C(=O)N[C@@H]([C@@H](C)O)C(=O)N1)[C@@H](C)O)C(C)C)C(=O)N[C@@H](CC(C)C)C(=O)N1CCC[C@H]1C(=O)N1CCC[C@H]1C(=O)N[C@H](C(=O)N[C@@H](CC(N)=O)C(=O)N[C@H](C(=O)NCC(=O)N[C@@H](CO)C(=O)N[C@@H](CC(N)=O)C(=O)N[C@H](C(=O)N[C@@H](Cc1ccc(O)cc1)C(N)=O)[C@@H](C)O)C(C)C)[C@@H](C)O [PM]	–	flat fluorescence curves; also recorded: do not form amyloid	no fibrils were found	–	–	–
CC[C@H](C)[C@H](NC(=O)[C@H](C)NC(=O)CNC(=O)[C@H](Cc1ccccc1)NC(=O)[C@H](CC(N)=O)NC(=O)[C@H](CC(N)=O)NC(=O)[C@H](CO)NC(=O)[C@H](CO)NC(=O)[C@H](Cc1c[nH]cn1)NC(=O)[C@@H](NC(=O)[C@H](CC(C)C)NC(=O)[C@H](Cc1ccccc1)NC(=O)[C@H](CC(N)=O)NC(=O)[C@H](C)NC(=O)[C@H](CC(C)C)NC(=O)[C@H](CCCNC(=N)N)NC(=O)[C@H](CCC(N)=O)NC(=O)[C@@H](NC(=O)[C@H](C)NC(=O)[C@@H]1CSSC[C@H](NC(=O)[C@@H](N)CCCCN)C(=O)N[C@@H](CC(N)=O)C(=O)N[C@@H]([C@@H](C)O)C(=O)N[C@@H](C)C(=O)N[C@@H]([C@@H](C)O)C(=O)N1)[C@@H](C)O)C(C)C)C(=O)N[C@@H](CC(C)C)C(=O)N[C@@H](CO)C(=O)N[C@@H](CO)C(=O)N[C@H](C(=O)N[C@@H](CC(N)=O)C(=O)N[C@H](C(=O)NCC(=O)N[C@@H](CO)C(=O)N[C@@H](CC(N)=O)C(=O)N[C@H](C(=O)N[C@@H](Cc1ccc(O)cc1)C(N)=O)[C@@H](C)O)C(C)C)[C@@H](C)O [hIAPP]	–	–	typical amyloid fibril morphology	≤ 40 h	β-sheet structure	0.109
